Data as given in patent US20160215267A1, “METHODS FOR GENERATING 3D CELL CULTURE MODEL IN HIGH RESPIRATION ENVIRONMENTS FOR HIGH-CONTENT ANALYSES AND SCREENING” (IKKO-ZU CORPORATION, priority 2015, published 2016).

Tested on: HepG2/C3A
Assay: Drug-induced liver injury (DILI) simulated by adjusting air supply from the well bottom, island-shaped 3Ds on PDMS
Type: cell-based, human
Conditions: 24 h exposure, highest concentration 20 mM
Experimental: Compounds were dissolved at 200 times the highest test concentration in 100% DMSO. […] The final DMSO concentration was set constant and less than 0.4% over the tested dilutions. […] Therefore, serially-diluted compounds were finally diluted in situ at 1/2 and mixed by a gentle rocking motion a few times. […]
Cells grown as island 3Ds in the gas-permeable PDMS membrane were exposed to drug treatments described above. […] The plates were equilibrated to 5% CO2 and 3TC and measured by Opera (PerkinElmer).
For detailed global image acquisition, a 20× objective was used in spinning-disc confocal mode. […] Then the cell area was estimated for selected nuclei in the regions, and TMRM emission intensity in the cell regions was calculated for the selected cells over the 4 designated fields per well. […] For the dose-response and Z′ values, the intensity values were analyzed on a projection image representing the peak intensity values for each of 4 Z-planes projected onto a single image. For the detailed analysis of the entire 3Ds, each Z-plane was individually analyzed.

CC(=O)Nc1ccc(O)cc1 [Acetaminophen, acetaminophen]
toxicity response (dose response curve) (3Ds on PDMS membrane left entirely bare): apparently unresponsive | toxicity response (dose response curve) (3Ds on PDMS membrane partially-sealed): suggesting a DILI effect
